Experiments:
[1] = test system: TNF-alpha production in LPS stimulated human peripheral blood mononuclear cells (PBMCs); assay: Inhibition on TNF-alpha Production in Human Mononuclear Cells; assay type: cell-based; conditions: PBMC, LPS 1 μg/mL, 24 hours, TNF-alpha by ELISA, read-out: IC50, TNF-alpha production from stimulated PBMCs
Protocol: (b) Inhibition on TNF-alpha Production in Human Mononuclear Cells 1. Test Method (1) Human Peripheral Blood Mononuclear Cells (PBMCs) Preparation
Blood (30 ml for each person) was collected from the median cubital vein of healthy volunteer was divided 15 mL each in heparin containing conical tube and the same volume of RPMI1640 was added to each tube. Diluted blood was then piled up to 20 mL of Ficoll-Paque PLUS (Amersham Pharmacia Biotech) in polystyrene centrifuge tube. After centrifugation at 1,600 rpm for 30 minutes, cells gathering in the center area of the gradient were collected by capillary and washed with 40 mL of RPMI1640 in several times with centrifugation at 1,200 rpm for 10 minutes. PBMC finally precipitated were suspended in RPMI1640 containing 1% fetal bovine serum and antibiotics. After cell counting, final suspension at 3×10^6 cells/mL in culture medium was prepared.
Human PBMCs prepared by the density gradient method using Ficoll-Paque PLUS were suspended in the culture medium mentioned above with the concentration of 3×10^6 cells/mL and 0.5 mL of the suspension was sowed into each well of a 24-well culture plate. Cells were incubated in the CO2 incubator for 24 hours with 0.25 mL of LPS in addition of 0.25 mL of concentrations of drugs or vehicle at the start of the incubation. […] TNF-alpha levels in the medium were measured by ELISA. […]

[2] = target: U937 Phosphodiesterase IV (PDE IV); assay: Inhibition of U937 Phosphodiesterase IV (PDE IV); assay type: biochemical; conditions: enzyme preparation from U937 cells, [3H]cAMP SPA assay, CI-930 10 μM added, 30° C. 15 minutes; read-out: IC50, inhibitory activity on PDE-IV
Protocol: (a) Inhibition of U937 Phosphodiesterase IV (PDE IV)
Cultured U937 cells were washed twice and harvested with phosphate-buffered saline (PBS) by cell-scraper. After centrifugation, the cell pellet was suspended in homogenizing buffer (0.5% deoxycholate [DOC], 5 mM 2-mercaptoethanol, 1 μM leupeptin, 100 μM PMSF, 20 μM p-tosyl-L-lysine-chloromethyl ketone [TLCK] in PBS). The cell suspension was then sonicated for a couple of minutes and homogenized by a glass-Teflon homogenizer with twenty strokes. The homogenate was centrifuged at 200 g for 30 minutes, and the supernatant was further ultra-centrifuged at 100,000×g for 90 minutes (4° C.). […]
PDE4, activity was estimated with a Phosphodiesterase [^3H]cAMP SPA Enzyme Assay System (Amersham Pharmacia Biotech), using a 96 well Opti-plate. […] Radio-activity in each well was counted by a Top Counter. […]
IC50 values of test compounds for the enzyme activity of PDE4 was determined from regression analysis for log-logit conversion values of percent inhibition in the compound-treated tubes compared to that of the control. Percent inhibition was calculated with the following equation: Inhibition (%)={1−(C−B)/(A−B)}×100; in which A, B and C means mean values of radio-activity counts (dpm) of control, blank and the compound-treated tubes, respectively.

melting point | SMILES | further results
178 to 180 °C | CCc1ccc2c(-c3cncc(Br)c3)c(CCC(=O)N3CCOCC3)c(C)nn12 [Example 388, 4-(5-bromo-3-pyridinyl)-7-ethyl-2-methyl-3-[3-(4-morpholinyl)-3-oxopropyl]pyrrolo[1,2-b]pyridazine] | –
172 to 174 °C | CCc1ccc2c(-c3cncc(Br)c3)c(CCC(=O)NC)c(C)nn12 [Example 389, 3-[4-(5-bromo-3-pyridinyl)-7-ethyl-2-methylpyrrolo[1,2-b]pyridazin-3-yl]-N-methylpropanamide] | –
196.5 to 197.5 °C | CCc1ccc2c(-c3cncc(Br)c3)c(CCC(=O)NS(C)(=O)=O)c(C)nn12 [Example 390, N-{3-[4-(5-bromo-3-pyridinyl)-7-ethyl-2-methylpyrrolo[1,2-b]pyridazin-3-yl]propanoyl}methanesulfonamide] | –
118 to 119 °C | CCc1ccc2c(-c3cncc(Cl)c3)c(CCCCC(=O)O)c(COC)nn12 [Example 503, 5-[4-(5-chloro-3-pyridinyl)-7-ethyl-2-(methoxymethyl)pyrrolo[1,2-b]pyridazin-3-yl]pentanoic acid] | –
140 to 141 °C | CCc1ccc2c(-c3cncc(OC)c3)c(CCCC(=O)O)c(COC)nn12 [Example 499, 4-[7-ethyl-2-(methoxymethyl)-4-(5-methoxy-3-pyridinyl)pyrrolo[1,2-b]pyridazin-3-yl]butanoic acid] | –
111 to 112 °C | CCc1ccc2c(-c3cncc(OC)c3)c(CCCCC(=O)O)c(COC)nn12 [Example 496, 5-[7-ethyl-2-(methoxymethyl)-4-(5-methoxy-3-pyridinyl)pyrrolo[1,2-b]pyridazin-3-yl]pentanoic acid] | –
159 to 160 °C | CCc1ccc2c(-c3cncc(Cl)c3)c(CCC(=O)O)c(COC)nn12 [Example 502, 3-[4-(5-chloro-3-pyridinyl)-7-ethyl-2-(methoxymethyl)pyrrolo[1,2-b]pyridazin-3-yl]propanoic acid] | –
164 to 165 °C | CCc1ccc2c(-c3cncc(OC)c3)c(CCC(=O)O)c(COC)nn12 [Example 498, 3-[7-ethyl-2-(methoxymethyl)-4-(5-methoxy-3-pyridinyl)pyrrolo[1,2-b]pyridazin-3-yl]propanoic acid] | –
122 to 123 °C | CCc1ccc2c(-c3cncc(Br)c3)c(C(=O)OC)c(COC(C)=O)nn12 [Example 429, methyl 2-[(acetyloxy)methyl]-4-(5-bromo-3-pyridinyl)-7-ethylpyrrolo[1,2-b]pyridazine-3-carboxylate] | –
112 to 113 °C | CCc1ccc2c(-c3cncc(Cl)c3)c(CCCC(=O)O)c(COC)nn12 [Example 501, 4-[4-(5-chloro-3-pyridinyl)-7-ethyl-2-(methoxymethyl)pyrrolo[1,2-b]pyridazin-3-yl]butanoic acid] | –
66 to 69 °C | CCc1ccc2c(-c3cccc(C#N)c3)c(CCCCC(=O)N3CCOCC3)c(-c3ccccc3)nn12 [Example 282, 3-{7-Ethyl-3-[5-(4-morpholinyl)-5-oxopentyl]-2-phenylpyrrolo[1,2-b]pyridazin-4-yl}benzonitrile] | –

The next lines start with the compound.

SMILES | melting point | further results
CCc1ccc2c(-c3cccc(C#N)c3)c(CCCCC(=O)NC)c(-c3ccccc3)nn12 [Example 278, 5-[4-(3-Cyanophenyl)-7-ethyl-2-phenylpyrrolo[1,2-b]pyridazin-3-yl]-N-methylpentanamide] | 60 °C | –
CCc1ccc2c(-c3cncc(Br)c3)c(CCC(=O)O)c(C)nn12 [Example 135, 3-[4-(5-Bromo-3-pyridinyl)-7-ethyl-2-methylpyrrolo[1,2-b]pyridazin-3-yl]propanoic acid] | 181 to 182 °C | –
CCc1ccc2c(-c3cccc(Cl)c3)c(CCCCC(=O)NC)c(-c3ccccc3)nn12 [Example 280, 5-[4-(3-Chlorophenyl)-7-ethyl-2-phenylpyrrolo[1,2-b]pyridazin-3-yl]-N-methylpentanamide] | 70 to 72 °C | –
CCc1ccc2c(-c3ccc(C(N)=O)cc3)c(CCCCCC(=O)O)c(C)nn12 [Example 198, 6-{4-[4-(Aminocarbonyl)phenyl]-7-ethyl-2-methylpyrrolo[1,2-b]pyridazin-3-yl}hexanoic acid] | – | IC50 [1]: < 100 nM; IC50 [2]: < 1000 nM
CCc1ccc2c(-c3cccc(Cl)c3)c(C#N)c(-c3ccccc3)nn12 [Example 7, 4-(3-Chlorophenyl)-7-ethyl-2-phenylpyrrolo[1,2-b]pyridazine-3-carbonitrile] | 172 to 173 °C | –
CCOC(=O)CC(=O)Cc1c(C)nn2c(Cl)ccc2c1-c1ccc(F)cc1 [Example 192, Ethyl 4-[7-chloro-4-(4-fluorophenyl)-2-methylpyrrolo[1,2-b]pyridazin-3-yl]-3-oxobutanoate] | 116 to 118 °C | –
CCc1ccc2c(-c3cccc(C#N)c3)c(CCCCC(=O)Nc3ccccn3)c(-c3ccccc3)nn12 [Example 263, 5-[4-(3-Cyanophenyl)-7-ethyl-2-phenylpyrrolo[1,2-b]pyridazin-3-yl]-N-(2-pyridinyl)pentanamide] | 67 to 70 °C | –
CCc1ccc2c(-c3ccnc(Cl)c3)c(CCCCC(=O)O)c(C)nn12 [Example 94, 5-[4-(2-Chloro-4-pyridinyl)-7-ethyl-2-methylpyrrolo[1,2-b]pyridazin-3-yl]pentanoic acid] | 139 to 140 °C | –
CCc1ccc2c(-c3cccc(Cl)c3)c(CCCCC(=O)N3CCOCC3)c(-c3ccccc3)nn12 [Example 279, 4-(3-Chlorophenyl)-7-ethyl-3-[5-(4-morpholinyl)-5-oxopentyl]-2-phenylpyrrolo[1,2-b]pyridazine] | 55 to 58 °C | –
CCc1ccc2c(-c3cccc(C#N)c3)c3c(nn12)CCC3=O [Example 10, 3-(6-Ethyl-1-oxo-2,3-dihydro-1H-cyclopenta[e]pyrrolo[1,2-b]pyridazin-9-yl)benzonitrile] | 150 to 154 °C | –
CCc1ccc2c(-c3cncc(Br)c3)c(CCCCC(=O)NS(C)(=O)=O)c(C)nn12 [Example 267, N-{5-[4-(5-Bromo-3-pyridinyl)-7-ethyl-2-methylpyrrolo[1,2-b]pyridazin-3-yl]pentanoyl}methanesulfonamide] | 124 to 125 °C | –
